≈ marks a conversion by molar mass, not a printed value.

The species named for data set [1] is Homo sapiens. Kind of data set: Inhibition of alpha glucosidase (unknown origin) at 0.5 mg/ml.
Data set [2] deals with LNCaP. Kind of data set: Downregulation of prostate specific antigen secretion in human LNCAP cells. In kind it is functional, cell-based.
Data set [3] in a line: Inhibition of advanced glycation end product formation. In kind it is physicochemical.
In data set [4] the target is Xanthine dehydrogenase/oxidase (Homo sapiens, UniProt P47989). In words: Inhibition of xanthine oxidase (unknown origin).
For data set [5], the target named is T1, Succinate-semialdehyde dehydrogenase, mitochondrial (Homo sapiens, UniProt P51649).
T1 sequence (P51649 whole entry): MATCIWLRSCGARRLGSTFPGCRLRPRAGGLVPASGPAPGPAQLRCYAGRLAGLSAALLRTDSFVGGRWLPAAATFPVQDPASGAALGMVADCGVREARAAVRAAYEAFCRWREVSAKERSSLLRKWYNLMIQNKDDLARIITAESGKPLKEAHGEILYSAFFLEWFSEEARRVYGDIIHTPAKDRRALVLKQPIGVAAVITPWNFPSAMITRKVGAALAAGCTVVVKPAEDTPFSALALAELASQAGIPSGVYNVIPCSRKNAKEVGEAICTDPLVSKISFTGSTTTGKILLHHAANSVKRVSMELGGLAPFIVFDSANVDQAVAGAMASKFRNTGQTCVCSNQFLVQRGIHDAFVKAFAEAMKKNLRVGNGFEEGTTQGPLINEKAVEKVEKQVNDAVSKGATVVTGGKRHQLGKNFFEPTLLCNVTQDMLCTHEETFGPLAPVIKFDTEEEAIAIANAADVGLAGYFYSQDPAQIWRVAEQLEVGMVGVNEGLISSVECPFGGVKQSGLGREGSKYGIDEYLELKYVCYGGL
In words: Inhibition of SSADH (unknown origin).

Data set [6] deals with Plasmodium falciparum. In words: Antimicrobial activity against Plasmodium falciparum. Type of data set: functional, organism-based.
Data set [7] has as its target Benzodiazepine receptors; peripheral & central. Kind of data set: Binding affinity to benzodiazepine receptor (unknown origin). Type of data set: protein assay, Homo sapiens.
The target in data set [8] is Acetylcholinesterase (Homo sapiens, UniProt P22303). In words: Inhibition of AChE (unknown origin).
Data set [9] relates to Staphylococcus aureus. In words: Antimicrobial activity against Staphylococcus aureus. Type of data set: functional.
The target of data set [10] is T2, Human immunodeficiency virus type 1 integrase (Human immunodeficiency virus 1, UniProt Q7ZJM1). In words: Inhibition of HIV-1 integrase terminal cleavage activity.
Data set [11] deals with T2, Human immunodeficiency virus type 1 integrase. In words: Inhibition of HIV-1 integrase strand transfer activity.
In data set [12] the test system is Leishmania. In words: Leishmanicidal activity against Leishmania. Type of data set: functional, organism-based.
For data set [13], the target named is Telomerase reverse transcriptase (Homo sapiens, UniProt O14746). In words: Inhibition of telomerase activity (unknown origin).
Data set [14] addresses T3, Cystic fibrosis transmembrane conductance regulator (Homo sapiens, UniProt P13569). In words: Stimulation of CFTR (unknown origin).
In data set [15] the target is T3, Cystic fibrosis transmembrane conductance regulator. Kind of data set: Inhibition of forskolin-stimulated CFTR (unknown origin).
In data set [16] the target is 4-aminobutyrate aminotransferase, mitochondrial (Homo sapiens, UniProt P80404). In words: Inhibition of GABA transaminase (unknown origin).
Data set [17] in a line: Inhibition of alpha glucosidase (unknown origin). Also on record: species or system Homo sapiens.
The species named for data set [18] is Rattus norvegicus. Kind of data set: Antiulcer activity in rat assessed as protection from indomethacin-induced gastric damage. In kind it is functional. To be noted: Stomach.
Data set [19] can be described thus: Competitive inhibition of muscarinic receptor (unknown origin). The arrangement: species or system Homo sapiens.
Data set [20] addresses T4, Adenosine receptor A3 (Homo sapiens, UniProt P0DMS8).
T4 sequence (P0DMS8 whole entry): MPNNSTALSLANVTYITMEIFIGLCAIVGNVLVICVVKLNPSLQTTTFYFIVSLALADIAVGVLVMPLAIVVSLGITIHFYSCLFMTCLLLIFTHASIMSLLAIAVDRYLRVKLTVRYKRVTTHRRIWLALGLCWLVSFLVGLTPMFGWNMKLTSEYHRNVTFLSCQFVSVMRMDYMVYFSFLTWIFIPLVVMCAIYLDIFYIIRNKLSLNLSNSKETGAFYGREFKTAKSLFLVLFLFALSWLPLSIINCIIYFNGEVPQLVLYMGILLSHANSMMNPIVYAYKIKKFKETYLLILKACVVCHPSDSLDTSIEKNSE
In words: Binding affinity to human adenosine A3 receptor.

Xanthine dehydrogenase/oxidase, sequence (P47989 whole entry): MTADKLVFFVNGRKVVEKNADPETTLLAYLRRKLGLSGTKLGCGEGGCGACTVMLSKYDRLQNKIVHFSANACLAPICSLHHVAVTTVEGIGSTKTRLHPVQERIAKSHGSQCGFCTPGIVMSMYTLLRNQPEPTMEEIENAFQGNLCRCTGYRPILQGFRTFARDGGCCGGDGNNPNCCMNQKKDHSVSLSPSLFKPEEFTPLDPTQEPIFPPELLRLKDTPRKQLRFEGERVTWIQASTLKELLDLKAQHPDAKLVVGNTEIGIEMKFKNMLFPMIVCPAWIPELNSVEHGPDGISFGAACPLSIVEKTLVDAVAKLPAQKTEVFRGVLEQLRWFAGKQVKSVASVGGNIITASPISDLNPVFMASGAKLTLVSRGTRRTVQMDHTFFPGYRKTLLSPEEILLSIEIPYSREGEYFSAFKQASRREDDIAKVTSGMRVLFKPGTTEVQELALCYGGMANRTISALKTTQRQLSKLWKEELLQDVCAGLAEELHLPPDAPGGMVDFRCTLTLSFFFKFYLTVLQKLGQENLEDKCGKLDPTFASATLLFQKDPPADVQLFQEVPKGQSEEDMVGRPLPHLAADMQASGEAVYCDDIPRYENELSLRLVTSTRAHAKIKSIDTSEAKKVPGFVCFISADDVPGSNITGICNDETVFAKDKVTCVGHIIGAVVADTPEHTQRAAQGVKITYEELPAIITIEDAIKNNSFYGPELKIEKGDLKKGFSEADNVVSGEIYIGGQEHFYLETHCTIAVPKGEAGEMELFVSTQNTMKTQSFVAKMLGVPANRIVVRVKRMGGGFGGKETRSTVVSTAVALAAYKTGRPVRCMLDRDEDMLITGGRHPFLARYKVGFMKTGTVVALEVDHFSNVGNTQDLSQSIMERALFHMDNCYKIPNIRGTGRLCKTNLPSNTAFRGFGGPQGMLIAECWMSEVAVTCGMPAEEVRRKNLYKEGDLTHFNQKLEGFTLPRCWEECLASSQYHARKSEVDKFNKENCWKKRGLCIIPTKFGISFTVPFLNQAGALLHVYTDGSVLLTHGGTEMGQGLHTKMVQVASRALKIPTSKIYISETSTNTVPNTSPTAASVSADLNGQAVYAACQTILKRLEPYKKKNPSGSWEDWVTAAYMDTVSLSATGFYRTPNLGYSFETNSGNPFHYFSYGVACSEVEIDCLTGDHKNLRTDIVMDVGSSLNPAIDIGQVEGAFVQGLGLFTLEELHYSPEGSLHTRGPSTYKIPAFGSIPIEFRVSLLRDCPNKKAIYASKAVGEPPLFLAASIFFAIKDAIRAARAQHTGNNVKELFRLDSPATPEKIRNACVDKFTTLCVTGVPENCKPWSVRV
T2 sequence (Q7ZJM1 whole entry): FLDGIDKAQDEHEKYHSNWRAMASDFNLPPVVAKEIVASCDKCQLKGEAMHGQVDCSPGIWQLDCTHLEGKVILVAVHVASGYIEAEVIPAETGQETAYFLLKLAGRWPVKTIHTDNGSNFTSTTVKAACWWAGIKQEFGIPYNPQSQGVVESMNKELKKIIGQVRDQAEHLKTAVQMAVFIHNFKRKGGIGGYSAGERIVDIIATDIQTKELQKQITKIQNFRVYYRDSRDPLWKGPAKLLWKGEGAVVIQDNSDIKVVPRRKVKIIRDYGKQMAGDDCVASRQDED
Acetylcholinesterase, sequence (P22303 whole entry): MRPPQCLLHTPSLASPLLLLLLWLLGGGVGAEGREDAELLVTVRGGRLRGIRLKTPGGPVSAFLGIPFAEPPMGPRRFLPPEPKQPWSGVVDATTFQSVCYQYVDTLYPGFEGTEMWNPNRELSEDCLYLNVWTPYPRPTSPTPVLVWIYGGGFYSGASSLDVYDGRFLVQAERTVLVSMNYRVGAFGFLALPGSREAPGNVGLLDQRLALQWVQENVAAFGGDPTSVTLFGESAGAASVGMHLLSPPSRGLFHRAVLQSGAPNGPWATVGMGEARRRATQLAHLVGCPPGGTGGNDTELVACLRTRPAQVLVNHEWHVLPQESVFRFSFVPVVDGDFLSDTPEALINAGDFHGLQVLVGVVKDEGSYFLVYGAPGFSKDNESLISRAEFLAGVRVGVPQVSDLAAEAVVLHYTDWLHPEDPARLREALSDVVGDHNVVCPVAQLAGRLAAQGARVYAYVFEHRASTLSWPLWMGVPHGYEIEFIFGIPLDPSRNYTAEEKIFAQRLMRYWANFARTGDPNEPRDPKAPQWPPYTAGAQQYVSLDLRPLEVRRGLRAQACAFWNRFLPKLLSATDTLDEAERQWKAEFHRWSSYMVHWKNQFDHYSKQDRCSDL
T3 sequence (P13569 whole entry): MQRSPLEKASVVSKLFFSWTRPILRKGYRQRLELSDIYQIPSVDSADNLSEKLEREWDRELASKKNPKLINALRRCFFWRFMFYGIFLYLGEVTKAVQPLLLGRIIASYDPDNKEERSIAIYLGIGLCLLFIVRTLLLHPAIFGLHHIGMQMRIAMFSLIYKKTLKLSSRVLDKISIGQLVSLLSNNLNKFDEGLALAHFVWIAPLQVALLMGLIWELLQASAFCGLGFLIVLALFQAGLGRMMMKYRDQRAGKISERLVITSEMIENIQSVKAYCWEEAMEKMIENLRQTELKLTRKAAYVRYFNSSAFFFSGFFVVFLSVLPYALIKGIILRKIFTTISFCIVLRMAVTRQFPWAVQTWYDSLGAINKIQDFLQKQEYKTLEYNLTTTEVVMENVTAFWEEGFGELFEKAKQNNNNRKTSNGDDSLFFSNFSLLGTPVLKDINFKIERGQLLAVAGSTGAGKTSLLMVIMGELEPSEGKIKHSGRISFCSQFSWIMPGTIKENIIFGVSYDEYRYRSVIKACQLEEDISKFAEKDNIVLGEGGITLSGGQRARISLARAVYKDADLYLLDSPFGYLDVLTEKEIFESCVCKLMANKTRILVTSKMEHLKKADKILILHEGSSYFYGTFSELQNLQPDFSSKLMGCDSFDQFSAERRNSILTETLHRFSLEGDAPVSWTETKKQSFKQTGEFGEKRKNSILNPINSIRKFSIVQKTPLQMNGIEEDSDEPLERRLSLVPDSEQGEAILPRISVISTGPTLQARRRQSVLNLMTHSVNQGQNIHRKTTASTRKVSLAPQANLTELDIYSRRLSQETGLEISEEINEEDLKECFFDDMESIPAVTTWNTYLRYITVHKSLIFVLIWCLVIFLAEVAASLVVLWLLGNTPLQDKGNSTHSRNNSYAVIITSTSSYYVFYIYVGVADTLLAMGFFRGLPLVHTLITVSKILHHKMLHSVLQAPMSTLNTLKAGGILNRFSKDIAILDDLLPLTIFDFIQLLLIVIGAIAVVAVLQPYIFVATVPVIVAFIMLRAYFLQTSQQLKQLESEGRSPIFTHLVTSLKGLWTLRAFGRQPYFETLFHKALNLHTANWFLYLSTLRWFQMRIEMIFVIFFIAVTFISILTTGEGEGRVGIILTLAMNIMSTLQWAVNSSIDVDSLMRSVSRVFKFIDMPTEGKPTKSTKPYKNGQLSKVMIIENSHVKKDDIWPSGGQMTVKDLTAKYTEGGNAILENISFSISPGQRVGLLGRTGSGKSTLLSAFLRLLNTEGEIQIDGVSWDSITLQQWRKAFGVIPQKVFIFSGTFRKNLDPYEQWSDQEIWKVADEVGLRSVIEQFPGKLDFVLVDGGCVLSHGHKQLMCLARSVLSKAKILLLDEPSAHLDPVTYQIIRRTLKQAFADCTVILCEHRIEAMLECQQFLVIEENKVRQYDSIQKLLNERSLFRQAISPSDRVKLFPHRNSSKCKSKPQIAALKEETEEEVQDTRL
Telomerase reverse transcriptase, sequence (O14746 whole entry): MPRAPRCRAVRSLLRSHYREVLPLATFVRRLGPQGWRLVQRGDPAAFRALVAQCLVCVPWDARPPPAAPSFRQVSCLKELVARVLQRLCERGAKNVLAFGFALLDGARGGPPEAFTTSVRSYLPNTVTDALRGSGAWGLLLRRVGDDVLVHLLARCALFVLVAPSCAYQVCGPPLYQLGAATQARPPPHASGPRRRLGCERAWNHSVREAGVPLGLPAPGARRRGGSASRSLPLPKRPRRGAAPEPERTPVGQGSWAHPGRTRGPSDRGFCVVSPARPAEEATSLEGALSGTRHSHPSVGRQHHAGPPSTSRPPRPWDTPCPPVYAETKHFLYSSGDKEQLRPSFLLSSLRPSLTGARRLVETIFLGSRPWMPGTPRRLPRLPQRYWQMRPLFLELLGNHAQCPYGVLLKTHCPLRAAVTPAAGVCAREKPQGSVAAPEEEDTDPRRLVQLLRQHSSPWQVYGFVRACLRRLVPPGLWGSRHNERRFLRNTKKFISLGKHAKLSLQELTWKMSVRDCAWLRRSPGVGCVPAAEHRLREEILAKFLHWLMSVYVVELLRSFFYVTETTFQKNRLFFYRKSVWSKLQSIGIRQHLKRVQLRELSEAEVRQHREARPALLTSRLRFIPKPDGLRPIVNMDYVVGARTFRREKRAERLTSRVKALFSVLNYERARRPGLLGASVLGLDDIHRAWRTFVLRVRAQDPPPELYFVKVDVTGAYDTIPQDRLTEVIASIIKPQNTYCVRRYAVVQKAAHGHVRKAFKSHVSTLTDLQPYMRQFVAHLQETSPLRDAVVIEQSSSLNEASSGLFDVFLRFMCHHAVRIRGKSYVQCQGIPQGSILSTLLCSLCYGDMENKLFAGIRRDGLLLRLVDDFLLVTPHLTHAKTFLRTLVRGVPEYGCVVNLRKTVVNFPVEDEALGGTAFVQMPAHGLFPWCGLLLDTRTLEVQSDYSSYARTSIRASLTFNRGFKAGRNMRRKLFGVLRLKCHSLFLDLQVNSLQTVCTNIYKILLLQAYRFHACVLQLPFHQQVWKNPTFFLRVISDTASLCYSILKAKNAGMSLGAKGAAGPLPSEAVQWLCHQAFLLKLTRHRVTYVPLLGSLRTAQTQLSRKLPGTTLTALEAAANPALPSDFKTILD

A word on the inhibition: it is the change of the read-out against control, counted positive when it falls. As a reminder, the IC50 is the concentration that gives 50% inhibition. What is called Ki is the equilibrium dissociation constant of an inhibitor or competing ligand from its target. Low readings indicate higher affinity, high ones lower affinity. As for `O=c1cc(-c2ccc(O)c(O)c2)oc2cc(O)cc(O)c12` [LUTEOLIN], the inhibition in data set [1] amounted to 36%. The IC50 in data set [2] was determined as 5 µM; in [3], 99 µM. The compound further yielded a Ki in data set [4] of 2.9 µM.

In turn, `O=c1cc(-c2ccc(O)cc2)oc2cc(O)c(O)c(O)c12` [SCUTELLAREIN] came in with an IC50 in [5] of 7200 µM.

`O=c1cc(-c2ccc(Oc3c(O)cc(O)c4c(=O)cc(-c5ccc(O)cc5)oc34)cc2)oc2cc(O)cc(O)c12` [LANAROFLAVONE] gave an IC50 in data set [6] of 0.48 µM. On to `Cc1ccc2oc(-c3cc(Br)ccc3O)cc(=O)c2c1`, for which the Ki in data set [7] turned out to be 0.0009 µM. `COc1cc2oc(-c3ccc(CN4CCCC4)cc3)cc(=O)c2cc1OC`: inhibition in data set [8] was half-maximal at 0.034 µM (IC50). With `O=c1cc(-c2cccc([N+](=O)[O-])c2)oc2ccc(Br)cc12`, the Ki in data set [7] is 0.0015 µM. As usually defined, the MIC is the lowest concentration that inhibits growth of the organism. Read a high MIC as a need for much substance. For the compound `N=C(NC1CCCCC1)c1ccc2nc(-c3ccc4oc(-c5ccccc5)cc(=O)c4c3)[nH]c2c1`, the MIC in data set [9] was found to be 1.56 µg/mL (≈ 3.37 µM). Turning to `O=c1cc(-c2ccc(O)c(O)c2)oc2cc(O[C@@H]3O[C@H](CO)[C@@H](O)[C@H](O)[C@H]3OS(=O)(=O)O)cc(O)c12`, the IC50 in data set [10] worked out at 2100 µM; in [11], 400 µM. Compound `O=c1cc(-c2ccc(OCCOCCN(CCOCCOc3ccc(-c4cc(=O)c5ccccc5o4)cc3)Cc3ccncc3)cc2)oc2ccccc12` came in with an IC50 in [12] of 0.13 µM.

In [13], `O=c1cc(-c2ccc(OCc3ccc(Cl)nc3)cc2)oc2cc(OCc3ccc(Cl)nc3)ccc12` gave an IC50 of 36.5 µM. The term EC50 denotes the concentration that produces a half-maximal response. Low values mean greater potency, high ones weaker potency. In data set [14], `O=c1cc(-c2ccc(O)cc2)oc2cc(O)cc(O)c12` [APIGENIN] displayed an EC50 of 9 µM. For the same compound, the Ki in [15] stood at 81 µM; in [4], 0.52 µM. Regarding `O=c1cc(-c2ccccc2)oc2cc(O)c(O)c(O)c12` [BAICALEIN], the half-maximal inhibitory concentration (IC50) in [16] stood at 12800 µM; in [17], 52 µM; in [3] it was 93 µM.

With `O=C1c2c(O)cc(O)cc2O[C@H](c2ccc(O)cc2)[C@H]1[C@@H]1C(=O)c2c(O)cc(O)cc2O[C@H]1c1ccc(O)cc1`, in [6], the IC50 came to 7.3 µM. In general, ED50 refers to the dose at which the effect has come halfway, by size or by number of responders. `COc1cccc2oc(-c3ccc(F)cc3)cc(=O)c12`: in data set [18], the ED50 worked out at 5.5 mg/kg. Turning to `O=c1cc(-c2cccc([N+](=O)[O-])c2)oc2ccc([N+](=O)[O-])cc12`, the Ki in data set [7] amounted to 0.0015 µM. In [19], `COc1c(OC)c(OC)c2c(=O)c(OC)c(-c3ccc4c(c3)OCO4)oc2c1OC` yielded a Ki of 76.5 µM.

As to `Cc1ccc(-c2oc3ccc(Cl)cc3c(=O)c2O)c(OC(C)C)c1`, the Ki in [20] was found to be 0.56 µM. For `O=c1cc(-c2ccc(CN3CCCCC3)cc2)oc2ccccc12`, the midpoint of inhibition in [8], the IC50, lay at 0.055 µM. Compound `COc1cc([C@H]2Oc3cc(-c4cc(=O)c5ccccc5o4)ccc3O[C@@H]2CO)ccc1O` had an MIC in [9] of 0.08 µg/mL (≈ 0.185 µM).

These data come from ChEMBL document CHEMBL3351502, “Flavones: an important scaffold for medicinal chemistry” (Eur J Med Chem, 2014).
